According to US6384080B1, “Anthranilic acid derivatives as inhibitors of the cGMP-phosphodiesterase” (Fujisawa Pharmaceutical Co., Ltd., priority 1998, dated 2002):
pIC50: −log10 of the molar value.

Tests used:
human platelet PDE-V = molecular target: T1, human platelet PDE-V (Homo sapiens, UniProt O76074); assay: cGMP-Phosphodiesterase (PDE) assay, enzymatic inhibitory test; format: biochemical; conditions: human platelet PDE-V; 0.1 μM [3H]-cGMP substrate, 30° C., 10 minutes; read-out: Inhibitory activity IC50
T1 construct: Human platelet cGMP-PDE was separated from other isozymes in human platelets; from tissue; host or cells: human platelets
Description: cGMP-Phosphodiesterase (PDE) Assay
Human platelet cGMP-PDE was separated from other isozymes in human platelets by a modification of the method of Thompson et. al. (see Cyclic Nucleotide Phosphodiesterase (PDE), in Methods of Enzymatic analysis, Vol 4, p127-234, 1984). In enzyme inhibition assays, the test compounds were dissolved in DMSO and then diluted with assay buffer (50 mM Tris-HCl, 0.077 mg/ml dithiothreitol and 10 mg/ml snake venom, 1 mM EGTA, pH 8.0), at final concentrations ranging from 10^−10 to 10^−6 M. Assays were performed at 0.1 μM substrate ([^3H]-cGMP) concentration, at 30° C. for 10 minutes using enzyme dilutions which gave 10-20% hydrolysis of substrate. Each assay was initiated by addition of substrate and terminated by addition of anion exchange resin (Dowex® 1-X8, 250 mg/mg) followed by centrifugation for 10 minutes (3000 rpm, at 4° C.). Radioactivity of supernatant (^3H-GMP) was assayed by liquid scintillation counting.

| SMILES | melting point | pIC50 (human platelet PDE-V) |
| --- | --- | --- |
| C[C@H](CO)Nc1ccc([N+](=O)[O-])cc1C(=O)NCc1ccc(Oc2ccccc2)cc1 [(R)-2-(2-Hydroxy-1-methylethyl)amino-5-nitro-N-(4-phenoxybenzyl)benzamide] | 127 to 129 °C | > 8.00 |
| Cc1ccc(CNC(=O)c2cc([N+](=O)[O-])ccc2N[C@@H](C)CO)cc1Cl [(S)-N-(3-Chloro-4-methylbenzyl)-2-(2-hydroxy-1-methylethylamino)-5-nitrobenzamide] | 178 to 179 °C | > 8.00 |
| O=C(NCc1ccc2c(c1)OCO2)c1cc([N+](=O)[O-])ccc1N[C@H]1CC[C@H](O)CC1 [Example 1(1), 2-(trans-4-hydroxycyclohexylamino)-5-nitro-N-(1,3-benzodioxol-5-ylmethyl)benzamide] | 205 to 206 °C |  |
| COc1cc(CNC(=O)c2cc([N+](=O)[O-])ccc2NC(CO)CO)ccc1Cl [Example 91, N-(4-Chloro-3-methoxybenzyl)-2-[2-hydroxy-1-(hydroxymethyl)ethylamino]-5-nitrobenzamide] | 176 to 177 °C |  |
| CCCCC(CO)Nc1ccc([N+](=O)[O-])cc1C(=O)NCc1ccc2c(c1)OCO2 (centres unmarked) [2-[1-(1-Hydroxymethyl)pentylamino]-5-nitro-N-(1,3-benzodioxol-5-ylmethyl)benzamide] | 112 to 115 °C | > 8.00 |
| COc1ccc(CNC(=O)c2cc([N+](=O)[O-])ccc2N[C@@H](C)CO)cc1OC [Example 68, (S)-N-(3,4-Dimethoxybenzyl)-2-(2-hydroxy-1-methyl-ethylamino)-5-nitrobenzamide] | 131 to 132 °C |  |
| COc1ccc(CNC(=O)c2cc([N+](=O)[O-])ccc2N[C@@H]2CCC[C@H]2O)cc1OC (relative stereo) [Example 67, N-(3,4-Dimethoxybenzyl)-2-(trans-2-hydroxycyclopentylamino)-5-nitrobenzamide] | 154 to 155 °C |  |
| COc1ccc(CNC(=O)c2cc([N+](=O)[O-])ccc2NC(C)(C)CO)cc1OC [Example 66, N-(3,4-Dimethoxybenzyl)-2-(2-hydroxy-1,1-dimethyl-ethylamino)-5-nitrobenzamide] | 161 to 162 °C |  |
| O=C(NCc1ccccc1)c1cc([N+](=O)[O-])ccc1NC(CO)CO [Example 55, N-Benzyl-2-[2-hydroxy-1-(hydroxymethyl)ethylamino]-5-nitrobenzamide] | 171 to 173 °C |  |
| COc1ccc(CNC(=O)c2cc([N+](=O)[O-])ccc2N[C@@H](CO)CCSC)cc1OC [N-(3,4-dimethoxylbenzyl)-2-[(R)-1-hydroxymethyl-3-(methylthio)propylamino]-5-nitrobenzamide] | 150 to 152 °C | > 8.00 |
| Cc1ccc(CNC(=O)c2cc([N+](=O)[O-])ccc2N[C@H]2CC[C@@H](O)CC2)cc1C [N-(3,4-Dimethylbenzyl)-2-(cis-4-hydroxycyclohexylamino)-5-nitrobenzamide] | 157 to 158 °C | > 8.00 |
| CC[C@@H](CO)Nc1ccc([N+](=O)[O-])cc1C(=O)NCc1ccc(OC)c(OC)c1 [Example 65, (S)-N-(3,4-Dimethoxybenzyl)-2-[1-(hydroxymethyl)-propylamino]-5-nitrobenzamide] | 168 to 169 °C |  |
| COc1cc(CNC(=O)c2cc(S(C)(=O)=O)ccc2N[C@H]2CC[C@H](O)CC2)ccc1Cl [Example 102, N-(4-Chloro-3-methoxybenzyl)-2-(trans-4-hydroxycyclohexylamino)-5-methanesulfonylbenzamide] | 234 to 235.5 °C |  |
| COc1ccc(CNC(=O)c2cc(S(=O)(=O)N3CCNCC3)ccc2N[C@H]2CC[C@H](O)CC2)cc1OC [153(2), N-(3,4-Dimethoxybenzyl)-2-(trans-4-hydroxycyclohexylamino)-5-(piperazinosulfonyl)benzamide] | 108 to 110 °C |  |
| COc1ccc(CNC(=O)c2cc([N+](=O)[O-])ccc2NNCC(F)(F)F)cc1OC [Example 69, N-(3,4-Dimethoxybenzyl)-5-nitro-2-[2-(2,2,2-trifluoroethyl)hydrazino]benzamide] | 140 to 142 °C |  |
| C[C@H](CO)Nc1ccc([N+](=O)[O-])cc1C(=O)NCc1ccc2c(c1)OCO2 [Example 7, (R)-2-(2-Hydroxy-1-methylethylamino)-5-nitro-N-(1,3-benzodioxol-5-ylmethyl)benzamide] | 166 to 168 °C |  |
| O=C(NCc1ccc(-c2ccccc2)cc1)c1cc([N+](=O)[O-])ccc1N[C@H]1CC[C@@H](O)CC1 [2-(cis-4-Hydroxycyclohexylamino)-5-nitro-N-(4-phenylbenzyl)benzamide] | 168 to 170 °C | > 8.00 |
| COc1cc(CNC(=O)c2cc([N+](=O)[O-])ccc2N[C@@H](C)CO)cc(OC)c1 [Example 107, (S)-N-(3,5-Dimethoxybenzyl)-2-(2-hydroxy-1-methylethyl)amino-5-nitrobenzamide] | 98 to 101 °C |  |
| COc1ccc(CNC(=O)c2cc([N+](=O)[O-])ccc2NC2CC=CCC2)cc1F (centres unmarked) [153(3), 2-(3-cyclohexenylamino)-N-(3-fluoro-4-methoxybenzyl)-5-nitrobenzamide] | 140 °C |  |
| COc1ccc(CNC(=O)c2cc(C#N)ccc2N[C@@H](C)CO)cc1OC [88(1), (S)-5-Cyano-N-(3,4-dimethoxybenzyl)-2-(2-hydroxy-1-methylethylamino)benzamide] | 142 to 143.5 °C |  |
| O=C(NCc1ccc(F)c(Cl)c1)c1cc([N+](=O)[O-])ccc1NC(CO)CO [N-(3-Chloro-4-fluorobenzyl)-2-[2-hydroxy-1-(hydroxymethyl)ethylamino]-5-nitrobenzamide] | 235 to 238 °C | > 8.00 |
| CC[C@@H](CO)Nc1ccc([N+](=O)[O-])cc1C(=O)NCc1ccc2c(c1)OCO2 [2(1), (S)-2-[1-(Hydroxymethyl)propylamino]-5-nitro-N-(1,3-benzodioxol-5-ylmethyl)benzamide] | 128 to 130 °C |  |
| COc1ccc(CNC(=O)c2cc([N+](=O)[O-])ccc2N[C@H]2CC[C@@H](OC(C)=O)CC2)cc1OC [2-[cis-4-(acetoxy)cyclohexylamino]-N-(3,4-dimethoxybenzyl)-5-nitrobenzamide] | 147 to 148 °C | > 8.00 |
| COc1ccc(CNC(=O)c2cc(S(=O)(=O)N3CCN(C(=O)OC(C)(C)C)CC3)ccc2N[C@H]2CC[C@H](O)CC2)cc1OC [153(1), 5-[4-(tert-Butoxycarbonyl)piperazin-1-ylsulfonyl]-N-(3,4-dimethoxybenzyl)-2-(trans-4-hydroxycyclohexylamino)benzamide] | 221 to 222 °C |  |
| COc1ccc(CNC(=O)c2cc(-c3ncc[nH]3)ccc2N[C@H]2CC[C@H](O)CC2)cc1OC [Example 90, N-(3,4-Dimethoxybenzyl)-2-(trans-4-hydroxycyclohexylamino)-5-(1H-imidazol-2-yl)benzamide] | 189 to 190 °C |  |
| COc1ccc(CNC(=O)c2cc([N+](=O)[O-])ccc2Nc2ccc3[nH]cnc3c2)cc1OC [Example 80, 2-(1H-Benzimidazol-5-ylamino)-N-(3,4-dimethoxybenzyl)-5-nitrobenzamide] | 226.5 to 227 °C |  |
| O=C(NCc1ccccc1)c1cc([N+](=O)[O-])ccc1N[C@H]1CC[C@H](O)CC1 [Example 51, N-benzyl-2-(trans-4-hydroxycyclohexylamino)-5-nitrobenzamide] | 233 to 234 °C |  |
